From ChEMBL document CHEMBL5357036, “Latest developments in coumarin-based anticancer agents: mechanism of action and structure-activity relationship studies” (RSC Med Chem, 2024) come the findings set out here.

The test system of series [1] is MDA-MB-231. Briefly: Anticancer activity against human MDA-MB-231 cells assessed as reduction in cell viability incubated for 48 hrs by MTT assay. Format: functional, cell-based. The settings on record: MDA-MB-231, 48 h. Background: Formazan colour is commonly taken as a measure of viable cells.
The subject of a further series is Hs-578T. Put plainly: Anticancer activity against human Hs-578T cells assessed as cell growth inhibition by MTT assay. Format: functional, cell-based.
The subject of another series is MDA-MB-468. Briefly: Anticancer activity against human MDA-MB-468 cells assessed as reduction in cell viability incubated for 48 hrs by MTT assay. Format: functional, cell-based. The settings on record: MDA-MB-468, 48 h.
Another series concerns HCC1937. Put plainly: Anticancer activity against human HCC1937 cells assessed as reduction in cell growth incubated for 48 hrs by MTT assay. Format: functional, cell-based. The note with it: HCC1937, 48 h.
Series [2] concerns HCT-116. Briefly: Anticancer activity against human HCT-116 cells assessed as reduction in cell viability measured after 72 hrs by MTT assay. Format: functional, cell-based. The note with it: HCT-116, 72 h.
The subject of the next series is SW-620. Put plainly: Anticancer activity against human SW620 cells assessed as reduction in cell viability measured after 72 hrs by MTT assay. Format: functional, cell-based. The settings on record: SW-620, 72 h.
Series [3] concerns A549. Put plainly: Antiproliferative activity against human A549 cells assessed as cell growth inhibition measured after 48 hrs by MTT assay. Format: functional, cell-based. The settings on record: A549, 48 h.
Another series deals with HT-29. Put plainly: Antiproliferative activity against human HT-29 cells assessed as cell growth inhibition measured after 48 hrs by MTT assay. Format: functional, cell-based. The note with it: HT-29, 48 h.
For series [4], the target named is ALK tyrosine kinase receptor (Homo sapiens, UniProt Q9UM73, L1196M). Briefly: Inhibition of ALK L1196M mutant (unknown origin).
For series [5], the target named is ALK tyrosine kinase receptor (Homo sapiens, UniProt Q9UM73, G1202R). Briefly: Inhibition of ALK G1202R mutant (unknown origin).
The target in series [6] is ALK tyrosine kinase receptor (Homo sapiens, UniProt Q9UM73, G1269A). Put plainly: Inhibition of ALK G1269A mutant (unknown origin).
Series [7] concerns HCT-116. Put plainly: Anticancer activity against human HCT-116 cells assessed as reduction in cell viability by MTT assay. Format: functional, cell-based.
For series [8], the system named is MCF7. Briefly: Anticancer activity against human MCF7 cells assessed as reduction in cell viability by MTT assay. Format: functional, cell-based.
The subject of series [9] is HCT-116. Put plainly: Cytotoxicity against human HCT-116 cells assessed as reduction in cell growth measured after 48 hrs by MTT assay. Format: functional, cell-based. The note with it: HCT-116, 48 h.
The test system of series [10] is MCF7. Briefly: Cytotoxicity against human MCF7 cells assessed as inhibition of cell growth by resazurin microplate assay. Format: functional, cell-based. Background: Resazurin is reduced to fluorescent resorufin, in cell work by metabolically active cells.
In series [11] the test system is HepG2. Put plainly: Anticancer activity against human HepG2 cells assessed as reduction in cell viability by MTT assay. Format: functional, cell-based.
The subject of series [12] is DU-145. Briefly: Anticancer activity against human DU-145 cells assessed as cell growth inhibition by MTT assay. Format: functional, cell-based.
The next series deals with Vero. Put plainly: Cytotoxicity against African green monkey Vero cells incubated for 24 hrs by CellTiter-Glo assay. Format: toxicity, cell-based, Chlorocebus sabaeus.
Series [13] relates to HepG2. Briefly: Antiproliferative activity against human HepG2 cells assessed as reduction in cell viability incubated for 72 hrs by MTT assay. The settings on record: HepG2, 72 h. Format: functional, cell-based.
The test system of series [14] is MCF7. Briefly: Anticancer activity against human MCF7 cells assessed as reduction in cell viability measured after 72 hrs by MTT assay. The settings on record: MCF7, 72 h. Format: functional, cell-based.
In a further series the test system is HeLa. Put plainly: Anticancer activity against human HeLa cells assessed as reduction in cell viability measured after 72 hrs by MTT assay. Format: functional, cell-based.
The subject of a further series is B16-F10. Put plainly: Cytotoxicity against mouse B16F10 cells assessed as reduction in cell viability incubated for 48 hrs by MTT assay. Format: functional, cell-based. The note with it: B16-F10, 48 h.
Series [15] has as its system DU-145. Put plainly: Anticancer activity against human DU-145 cells assessed as cell growth inhibition measured after 48 hrs by MTT assay. Format: functional, cell-based. The settings on record: DU-145, 48 h.
The test system of series [16] is MCF7. Put plainly: Cytotoxicity against human MCF7 cells assessed as cell growth inhibition by SRB assay. Format: functional, cell-based. Background: In SRB staining, fixed cells bind dye roughly in proportion to their protein.
Series [17] deals with MDA-MB-231. Briefly: Cytotoxicity against human MDA-MB-231 cells assessed as cell growth inhibition by SRB assay. Format: functional, cell-based.
For series [18], the system named is MDA-MB-231. Briefly: Antiproliferative activity against human MDA-MB-231 cells assessed as cell growth inhibition measured after 48 hrs by MTT assay. Format: functional, cell-based. The settings on record: MDA-MB-231, 48 h.
The test system of series [19] is MCF7. Briefly: Cytotoxicity against human MCF7 cells assessed as reduction in cell viability incubated for 48 hrs by MTT assay. Format: functional, cell-based. The note with it: MCF7, 48 h.
The test system of series [20] is HepG2. Put plainly: Cytotoxicity against human HepG2 cells assessed as reduction in cell viability. Format: functional, cell-based.
Series [21] deals with HepG2. Put plainly: Anticancer activity against human HepG2 cells assessed as reduction in cell viability measured after 72 hrs by MTT assay. Format: functional, cell-based. The settings on record: HepG2, 72 h.
The subject of series [22] is A549. Put plainly: Antiproliferative activity against human A549 cells assessed as reduction in cell viability measured after 24 hrs by MTT assay. Format: functional, cell-based. The settings on record: A549, 24 h.

Values after ≈ are worked out from the molar mass of the structure shown.

Chain of ALK tyrosine kinase receptor (Homo sapiens, UniProt Q9UM73, G1202R) (Q9UM73 19-1620 G1202R limits assumed): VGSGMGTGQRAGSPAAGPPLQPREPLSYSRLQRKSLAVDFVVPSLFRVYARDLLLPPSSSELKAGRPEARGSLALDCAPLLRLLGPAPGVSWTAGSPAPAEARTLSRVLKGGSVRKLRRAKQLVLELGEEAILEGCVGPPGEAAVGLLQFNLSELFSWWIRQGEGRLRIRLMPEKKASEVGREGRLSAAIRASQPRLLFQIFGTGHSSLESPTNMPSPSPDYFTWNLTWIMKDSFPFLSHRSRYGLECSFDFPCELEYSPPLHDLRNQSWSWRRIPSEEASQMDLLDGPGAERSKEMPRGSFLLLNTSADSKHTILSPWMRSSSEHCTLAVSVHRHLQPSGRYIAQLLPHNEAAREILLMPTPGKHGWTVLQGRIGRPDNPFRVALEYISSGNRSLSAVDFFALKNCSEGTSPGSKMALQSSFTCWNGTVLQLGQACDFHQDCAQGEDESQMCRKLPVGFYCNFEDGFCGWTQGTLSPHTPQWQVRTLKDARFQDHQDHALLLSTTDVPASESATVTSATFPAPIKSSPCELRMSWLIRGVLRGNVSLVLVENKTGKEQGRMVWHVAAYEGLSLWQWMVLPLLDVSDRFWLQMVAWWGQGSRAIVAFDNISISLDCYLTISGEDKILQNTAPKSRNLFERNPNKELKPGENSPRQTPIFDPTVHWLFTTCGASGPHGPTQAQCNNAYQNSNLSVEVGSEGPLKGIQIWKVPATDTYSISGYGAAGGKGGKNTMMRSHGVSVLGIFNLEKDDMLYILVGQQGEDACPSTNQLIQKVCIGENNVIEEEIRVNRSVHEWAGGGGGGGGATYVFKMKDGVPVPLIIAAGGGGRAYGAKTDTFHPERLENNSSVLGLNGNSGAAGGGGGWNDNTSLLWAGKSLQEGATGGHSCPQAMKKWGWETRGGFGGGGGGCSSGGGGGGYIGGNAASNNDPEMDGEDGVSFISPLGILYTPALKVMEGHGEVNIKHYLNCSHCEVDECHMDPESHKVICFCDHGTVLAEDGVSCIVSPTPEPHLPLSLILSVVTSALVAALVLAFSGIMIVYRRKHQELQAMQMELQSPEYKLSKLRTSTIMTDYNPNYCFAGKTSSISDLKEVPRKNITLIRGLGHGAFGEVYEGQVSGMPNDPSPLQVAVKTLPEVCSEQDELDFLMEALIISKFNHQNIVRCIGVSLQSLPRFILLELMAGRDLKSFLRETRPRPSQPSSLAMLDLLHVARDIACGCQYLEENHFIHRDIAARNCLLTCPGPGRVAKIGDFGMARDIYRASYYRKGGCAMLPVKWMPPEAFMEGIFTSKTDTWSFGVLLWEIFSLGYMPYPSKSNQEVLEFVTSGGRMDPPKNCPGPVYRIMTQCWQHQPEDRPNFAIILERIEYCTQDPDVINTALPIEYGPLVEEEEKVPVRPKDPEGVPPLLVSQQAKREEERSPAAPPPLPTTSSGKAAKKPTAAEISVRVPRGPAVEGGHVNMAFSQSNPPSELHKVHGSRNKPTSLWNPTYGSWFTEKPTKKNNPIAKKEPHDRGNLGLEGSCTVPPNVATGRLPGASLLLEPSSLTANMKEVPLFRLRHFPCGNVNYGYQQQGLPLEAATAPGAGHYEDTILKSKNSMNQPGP
Chain of ALK tyrosine kinase receptor (Homo sapiens, UniProt Q9UM73, G1269A) (Q9UM73 19-1620 G1269A limits assumed): as the sequence (Q9UM73 19-1620 G1202R limits assumed) above, with R1184G, G1251A counted along it
Chain of ALK tyrosine kinase receptor (Homo sapiens, UniProt Q9UM73, L1196M) (Q9UM73 19-1620 L1196M limits assumed): as the sequence (Q9UM73 19-1620 G1202R limits assumed) above, with L1178M, R1184G counted along it

As usually defined, the IC50 is the concentration that gives 50% inhibition. `O=c1oc2ccccc2c(O)c1C(c1ccc(O)cc1O)c1c(O)c2ccccc2oc1=O`: the IC50 is 25.3 µM in the series on MDA-MB-231 [1], 25.7 µM in the series on Hs-578T, 15.2 µM with MDA-MB-468 and 20.2 µM in the series with HCC1937.

For the compound `O=C(OCC#CCOc1no[n+]([O-])c1S(=O)(=O)c1ccccc1)c1cc2ccccc2oc1=O`, the IC50 amounted to 3.46 µM in the series with HCT-116 [2] and 1.86 µM with SW-620.

Turning to `O=c1oc2ccccc2cc1-c1nc(Nc2c3ccccc3nc3ccc(F)cc23)cs1`, the half-maximal inhibitory concentration (IC50) with A549 [3] came out at 5.18 µM; in the series on HT-29, 23.1 µM.

For `COc1ccc2nc(-c3cc4ccc(N5CCOCC5)cc4oc3=O)sc2c1`, the IC50 in [4] stood at 0.27 µM; in series [5], 0.59 µM; in [6] it was 0.3 µM.

In the case of `O=C(CSc1nnc(NC(=O)c2ccccc2)s1)Nc1ccc2oc(=O)ccc2c1`, the values for the IC50 in the series with HCT-116 [7] and in the series on MCF7 [8] were 30.7 µg/mL (≈ 70 µM) and 54.9 µg/mL (≈ 125 µM), respectively.

Take `COc1ccc(-c2cc(-c3cc4ccccc4oc3=O)nc(N)c2C#N)cc1`: the IC50 in the series on HCT-116 [9] came to 9.9 µM; in the series with MCF7 [10] it was 14.1 µM.

Take `COc1ccc(C(=O)Nc2nnc(SCC(=O)Nc3ccc4oc(=O)ccc4c3)s2)cc1`: the IC50 with HepG2 [11] is 24.9 µg/mL (≈ 53.1 µM).

`CC(C)(C)c1cc(C(C)(C)C)c2oc(=O)c(-c3csc(-n4nc(-c5ccccc5)cc4N)n3)cc2c1`: the half-maximal inhibitory concentration (IC50) in the series with DU-145 [12] worked out at 7 µM.

As to `O=c1cc(OCc2cc(-c3cc4c(cc3Cl)OCO4)no2)c2cc(Cl)ccc2o1`, the IC50 was 144 µM in the series on Vero and 12.8 µM in the series on HepG2 [13].

`O=C(NCCOCc1no[n+]([O-])c1S(=O)(=O)c1ccccc1)c1cc2ccccc2oc1=O`: the IC50 in the series with MCF7 [14] was found to be 0.61 µM; in the series on HeLa it was 0.88 µM.

For the compound `O=c1oc2ccccc2c2c1nc(-c1ccc(C(F)(F)F)cc1)c1occc12`, the IC50 amounted to 13 µM with B16-F10 and 20.9 µM with DU-145 [15].

With `Cc1c(-c2csc(N)n2)c(=O)oc2cc(OC(C)(C)C(=O)O)ccc12`, the IC50 in the series with MCF7 [16] was determined as 2.39 µM; in the series with MDA-MB-231 [17], 4.84 µM.

Turning to `COc1ccc2nc3ccccc3c(Nc3csc(-c4cc5ccccc5oc4=O)n3)c2c1`, in the series with MDA-MB-231 [18], the IC50 is 8.03 µM.

Consider `O=c1oc2ccccc2c2c1nc(-c1ccccn1)c1occc12`, for which, in the series with MCF7 [19], the half-inhibitory concentration (IC50) was 8 µM.

Turning to `CO[C@@H]1O[C@H](Cn2nncc2COc2cc(=O)oc3ccccc23)[C@@H](O)[C@H](O)[C@H]1O`, the IC50 in the series with HepG2 [20] stood at 107 µg/mL (≈ 255 µM).

As to `O=C(OCCCOc1no[n+]([O-])c1S(=O)(=O)c1ccccc1)c1cc2ccccc2oc1=O`, in the series with HepG2 [21], the IC50 is 3.86 µM.

Turning to `O=C(/C(Cl)=N/Nc1ccc([N+](=O)[O-])cc1)n1c(-c2cc3ccccc3oc2=O)nc2ccccc21`, the IC50 in the series on A549 [22] was determined as 0.28 µM.
